Source: patent EP1100507B1, “USE OF A COMBINATION COMPRISING A PRECURSOR OF URIC ACID AND ANTIOXIDANT FOR THE TREATMENT OF NEURODEGENERATIVE DESEASES” (Sacks, Meir S., priority 1998, dated 2000)

Tests used:
[1] = Luminol dependent chemiluminescence activated by SIN-1 (peroxynitrite generator); assay type: biochemical
Excerpt: (§1) We studied the effect of Green tea leaf extract on peroxynitrite. This study is based on a simple chemical interaction of peroxynitrite (OONO-) and luminol which produces blue light upon oxidation. […] In addition peroxynitrite itself was used directly with a fast injection-mixing system to ascertain if there might be differences between it and the peroxynitrite generating system (SIN-1) which mimics the natural production of (OONO-). […] Upon the stimulation of inflammation and/or infection, macrophages and neutrophils can be stimulated to produce large amounts of peroxynitrite.
(§2) The antioxidant effect of green tea and some of its constituents against luminol dependent chemiluminesence activated by peroxynitrite. Since peroxynitrite oxidizes luminol to an intermediate that produces light, antioxidants will inhibit this blue light by interfering with the oxidation of the luminol. In addition, we used SIN-1 which produces both superoxide and nitric oxide which combine to produce peroxynitrite. […] The purpose of this study was to measure the antioxidant activity of green tea extract and some of its prominent polyphenols. This is accomplished by using the antioxidants to oppose the oxidation of luminol by peroxynitrite thereby inhibiting the production of blue light.
(§3) Three sydnonimine congeners are known to produce both nitric oxide and superoxide and then combine to produce peroxynitrite (ONOO). […] It was kept on ice and maintained its activity for several hours of the experiment. Peroxynitrite (approx 50 mM) was diluted 1/1000 with water. The original solution is supplied in 0.3M NaOH and this stabilizes the compound. Once diluted it must be kept on ice and used quickly, especially after dilution. When the diluted OONO- is injected into the PBS buffer at pH=7.4. […] However, the slower reaction with SIN-1 gives an opportunity to dissect the reaction into its component parts, since rapid reaction and injection/mixing are not so crucial.
(§4) The luminol was obtained from Sigma Chemical Company, St. Louis, Mo. It was dissolved first in one ml DMSO and then diluted to produce a stock solution (10^-4M) in 0.1 M Phosphate buffered saline at a pH of 7.4.
Green tea powdered extract was purchased from Pharmanex, Simi Valley, California. 250mg was dissolved in 10ml of phosphate buffered saline (PBS) with pH of 7.4 and used as a stock solution. Dilutions were made using PBS and samples from this original stock solution were diluted every ten fold from one to a million (six samples).
A control solution was also used to provide a reference to the light stimulation produced by the combination of SIN-1 and luminol.
(§5) The luminometer tube was placed in a Berthold model LB9505C tube-6 channel luminometer with the temperature control set at 37°C and the light reaction was measured for 20 minutes. Peroxynitrite reacts with luminol directly and was injected using an essentially pressure-independent injection device, which injects 1/50 of it's total volume (2500 µm) of a gas tight syringe, made by the Hamilton Co. (pat. # 3161323) in Whittier, CA, to produce a blue light at 425 nm, which corresponds to the most sensitive detection range of the photomultipliers for this luminometer. The injection device was linked to a gastight 2500 microliter syringe with a fixed needle of 5.2 cm. This length of needle was necessary to penetrate the septum of the ports of the 6 channel Berthold Luminometer and to extend into the tube far enough to produce reproducible mixing necessary because of the short half-life of peroxynitrite. In Fig. 7, repetitive injections of peroxynitrite are shown giving the light generated over a one minute time period which was acquired, plotted and integrated with an IBM clone computer running KINB software. In the case of SIN-1, the ingredients were mixed prior to assay, with SIN-1 added fast. The assay is reported as counts per minute integrated over the 20 minute time period. […]

[2] = Luminol dependent chemiluminescence activated by directly injected peroxynitrite; assay type: biochemical; details: for inhibition of peroxynitrite-based luminol light: 1000 fold dilution; for relative antioxidant activity among the catechins tested: peroxynitrite or SIN-1 based light
Procedure: The end product of purine metabolism in humans is uric acid. This substance is an excellent antioxidant that can interact directly with nearby peroxynitrite. Figure 2 is a graph depicting interaction of peroxynitrite and uric acid and the inhibition of peroxynitrite based chemiluminescence. Figure 2 illustrates the oxidative reaction of peroxynitrite an luminol to produce light (chemiluminescence) and the interference with light which is produced by uric acid at a concentration of 10 µM. […] Allantoin is the end product of purine metabolism in animals except for man, great apes and some dalmatian dogs. […] Such an oxidant occurs most likely through peroxynitrite or possibly hypochlorite.
as §1, §2, §3, §4
as §5, with “software.” for “software. In the case of SIN-1, the ingredients were mixed prior to assay, with SIN-1 added fast. The assay is reported as counts per minute integrated over the 20 minute time period.”

[3] = cited from earlier work; for uricosuric effect / uric acid levels in the blood: normal, hyperuricemic and gouty humans; for abilities to increase uric acid levels: nucleotides compared to nucleosides; for increasing blood uric acid levels: nucleotides compared with DNA and RNA
[4] = administered in large amounts (95 mg/kg); oxidized to 2,8 dihydroxyadenine; cited from earlier work
[5] = cited from earlier work
[6] = tested on: allergic encephalomyelitis (EAE); details: mice, 500 mg/kg four times a day, started before or after clinical symptoms of EAE; cited from earlier work
[7] = 1:1000 dilution (stock 0.45 mMolar)
[8] = 1:100 dilution from stock at 0.45 mMolar

Oc1cc(O)c2c(c1)OC(c1ccc(O)c(O)c1)C(O)C2 (racemic) [racemic catechin, (±) catechin]
inhibition of SIN-1 activated luminol light [1, 7]: 50%
inhibition of SIN-1 activated luminol light ([1]; 1:1000 dilution (stock 0.45 mMolar), listed as Racemic catechin): about 50%
inhibition of SIN-1 activated luminol light ([1]; 10 fold dilutions after 1:1000): little inhibition
inhibition of peroxynitrite-based light ([2]; 1:10,000 dilution): 50%
inhibition of peroxynitrite-based light ([2]; 1:10,000 dilution, listed as Racemic catechin): about 50%
inhibition of peroxynitrite-based light ([2]; 1:100,000 dilution): 50%
inhibition of peroxynitrite-based luminol light [2]: about 50%
relative antioxidant activity among the catechins tested [2]: very active

Nc1ncnc2c1ncn2[C@@H]1O[C@H](COP(=O)(O)O)[C@@H](O)[C@H]1O [AMP]
uricosuric effect / uric acid levels in the blood [3]: raised uric acid levels in the blood
abilities to increase uric acid levels [3]: equivalent
increasing blood uric acid levels [3]: more effective than DNA and RNA

Nc1nc2c(ncn2[C@@H]2O[C@H](COP(=O)(O)O)[C@@H](O)[C@H]2O)c(=O)[nH]1 [GMP]
uricosuric effect / uric acid levels in the blood [3]: raised uric acid levels in the blood
abilities to increase uric acid levels [3]: equivalent
increasing blood uric acid levels [3]: more effective than DNA and RNA

Nc1ncnc2nc[nH]c12 [adenine]
toxicity [4]: can crystallize to form kidney stones
uricosuric effect / uric acid levels in the blood [3]: raised uric acid levels in the blood

Nc1nc2nc[nH]c2c(=O)[nH]1 [guanine]
uricosuric effect / uric acid levels in the blood [3]: ineffective

Nc1nc2c(ncn2[C@@H]2O[C@H](CO)[C@@H](O)[C@H]2O)c(=O)[nH]1 [guanosine]
abilities to increase uric acid levels [3]: equivalent

O=c1[nH]cnc2nc[nH]c12 [hypoxanthine]
uricosuric effect / uric acid levels in the blood [3]: raised uric acid levels in the blood
effectiveness as precursor of uric acid ([3]; overall, of AMP, GMP and hypoxanthine): most effective precursor of uric acid

OC[C@H]1O[C@@H](n2cnc3c(O)ncnc32)[C@H](O)[C@@H]1O [inosine]
abilities to increase uric acid levels [3]: equivalent

O=c1[nH]c(=O)c2[nH]c(=O)[nH]c2[nH]1 [uric acid]
solubility in water [5]: highly insoluble in water
inhibition of the oxidative reaction of peroxynitrite and luminol (chemiluminescence) ([2]; uric acid 10 µM, peroxynitrite 10 µM): about 99%
survival [6]: long time survival

O=c1[nH]c(=O)c2[nH]cnc2[nH]1 [xanthine]
uricosuric effect / uric acid levels in the blood [3]: ineffective

(-) epicatechin gallate
inhibition of SIN-1 activated luminol light [1, 7]: about 50%
inhibition of SIN-1 activated luminol light ([1]; 1:1000 dilution (stock 0.45 mMolar), listed as epicatechin gallate (-)): 60%
inhibition of light, peroxynitrite as activator of luminol light ([2]; 1:10 dilution): 100%
inhibition of peroxynitrite-based luminol light [2]: about 50%
inhibition of light production, peroxynitrite as activator of luminol light ([2]; consecutive 10 fold dilution after 1:10): about 25%
relative antioxidant activity among the catechins tested [2]: second most active antioxidant

(-) epigallocatechin gallate
inhibition of SIN-1 activated luminol light ([1]; 1:10 dilution): 100%
effect on light from SIN-1 [1, 8]: stimulation of light
inhibition of SIN-1 activated luminol light ([1]; full strength): 100%
effect on SIN-1 activated luminol light ([1]; further dilution beyond 1:10): stimulate production of light
effect on light from peroxynitrite [2, 8]: stimulation of light
pattern with peroxynitrite based light compared with SIN-1 activated light ([2]; full strength and 10 fold dilutions): same pattern of behavior
relative antioxidant activity among the catechins tested [2]: weakest antioxidant tested
